Measurements: ChEMBL document CHEMBL4834451, “Anti-chronic myeloid leukemia activity and quantitative structure-activity relationship of novel thiazole aminobenzamide derivatives” (Bioorg Med Chem Lett, 2021)

Tests used:
K562 = assay: Antiproliferative activity against human K562 cells by MTS assay; assay type: functional, cell-based
BaF3 = assay: Antiproliferative activity against mouse BaF3 cells harbouring BCR-ABL T315I mutant by MTS assay; assay type: cell-based
L02 = assay: Antiproliferative activity against human L02 cells by MTS assay; assay type: cell-based
[1] = Antiproliferative activity against imatinib-resistant human K562R cells by MTS assay; assay type: functional, cell-based
[2] = K562, read-out: pIC50 (converted)

IC50 (K562) | IC50 (BaF3) | Compound | IC50 (L02) | IC50 ([1]; K562, read-out: IC50) | IC50 [1, 2]
87.8 µM | > 64 µM | Cc1sc(Nc2cccc(C(=O)NCC(=O)O)c2)nc1-c1ccc(F)cc1 | > 100 µM | > 100 µM | 
> 100 µM |  | CCc1sc(Nc2cccc(C(=O)NCC(=O)O)c2)nc1-c1ccc(Cl)cc1 | > 100 µM | > 100 µM | 
44.1 µM |  | Cc1sc(Nc2cccc(C(=O)N[C@@H](Cc3ccccc3)C(=O)O)c2)nc1-c1ccc(C(F)(F)F)cc1 | > 100 µM | 78.1 µM | 78.2 µM
83.6 µM |  | CC(=O)[C@H](Cc1ccccc1)NC(=O)c1cccc(Nc2nc(-c3ccc(C)cc3)c(C)s2)c1 | > 100 µM | 14.7 µM | 14.7 µM
> 100 µM |  | Cc1ccc(-c2nc(Nc3cccc(C(=O)NCC(=O)O)c3)sc2C)cc1 | > 100 µM | > 100 µM | 
28.6 µM | 19.1 µM | CC(=O)[C@H](Cc1ccccc1)NC(=O)c1cccc(Nc2nc(-c3ccc(F)cc3)c(C)s2)c1 | > 100 µM | 12.8 µM | 12.9 µM
79.5 µM |  | Cc1sc(Nc2cccc(C(=O)N[C@@H](Cc3ccccc3)C(=O)O)c2)nc1-c1ccc(F)cc1 | > 100 µM | 41.3 µM | 41.3 µM
> 100 µM |  | CC(=O)CNC(=O)c1cccc(Nc2nc(-c3ccc(C)cc3)c(C)s2)c1 | > 100 µM | 50.2 µM | 50.2 µM
57.6 µM |  | Cc1sc(Nc2cccc(C(=O)NCC(=O)O)c2)nc1-c1ccccc1 | > 100 µM | 61.7 µM | 61.7 µM
51 µM |  | Cc1sc(Nc2cccc(C(=O)N[C@@H](Cc3ccccc3)C(=O)O)c2)nc1-c1ccc(Cl)cc1 | > 100 µM | 48.1 µM | 48.1 µM
66 µM |  | Cc1sc(Nc2cccc(C(=O)N[C@@H](Cc3ccccc3)C(=O)O)c2)nc1-c1ccccc1 | > 100 µM | 86.8 µM | 86.9 µM
> 100 µM |  | CCc1sc(Nc2cccc(C(=O)N[C@@H](Cc3ccccc3)C(C)=O)c2)nc1-c1ccc(Cl)cc1 | > 100 µM | 15.9 µM | 15.9 µM
71.8 µM |  | Cc1sc(Nc2cccc(C(=O)NCC(=O)O)c2)nc1-c1ccc(O)cc1 | > 100 µM | > 100 µM | 
34.8 µM | > 64 µM | Cc1sc(Nc2cccc(C(=O)NCC(=O)O)c2)nc1-c1ccc(C(F)(F)F)cc1 | > 100 µM | > 100 µM | 
51.4 µM |  | CC(=O)[C@H](Cc1ccccc1)NC(=O)c1cccc(Nc2nc(-c3ccc(Cl)cc3)c(C)s2)c1 | > 100 µM | 11.3 µM | 11.4 µM
68.9 µM |  | Cc1sc(Nc2cccc(C(=O)N[C@@H](Cc3ccccc3)C(=O)O)c2)nc1-c1ccc(O)cc1 | > 100 µM | 62.9 µM | 63 µM
93.3 µM |  | CCc1sc(Nc2cccc(C(=O)N[C@@H](Cc3ccccc3)C(=O)O)c2)nc1-c1ccccc1 | > 100 µM | 78 µM | 78 µM

IC50 (K562) | IC50 (BaF3) | Compound | IC50 (L02) | IC50 ([1]; K562, read-out: IC50) | IC50 [1, 2]
40.9 µM |  | CC(=O)CNC(=O)c1cccc(Nc2nc(-c3ccc(C(F)(F)F)cc3)c(C)s2)c1 | > 100 µM | 35.4 µM | 35.4 µM
> 100 µM |  | CCc1sc(Nc2cccc(C(=O)NCC(C)=O)c2)nc1-c1ccc(Cl)cc1 | > 100 µM | > 100 µM | 
66.3 µM | > 64 µM | CC(=O)CNC(=O)c1cccc(Nc2nc(-c3ccc(O)cc3)c(C)s2)c1 | > 100 µM | 68.3 µM | 68.2 µM
> 100 µM |  | CC(=O)CNC(=O)c1cccc(Nc2nc(-c3ccccc3)c(C)s2)c1 | > 100 µM | > 100 µM | 
8.32 µM | 36.6 µM | CC(=O)[C@H](Cc1ccccc1)NC(=O)c1cccc(Nc2nc(-c3ccc(O)cc3)c(C)s2)c1 | > 100 µM | 7.31 µM | 7.31 µM
60.5 µM |  | Cc1sc(Nc2cccc(C(=O)NCC(=O)O)c2)nc1-c1ccc(Cl)cc1 | > 100 µM | 71.5 µM | 71.4 µM
> 100 µM |  | CCc1sc(Nc2cccc(C(=O)N[C@@H](Cc3ccccc3)C(=O)O)c2)nc1-c1ccc(Cl)cc1 | > 100 µM | > 100 µM | 
53.1 µM |  | CC(=O)[C@H](Cc1ccccc1)NC(=O)c1cccc(Nc2nc(-c3ccccc3)c(C)s2)c1 | > 100 µM | 30.2 µM | 30.2 µM
61.7 µM |  | CCc1sc(Nc2cccc(C(=O)NCC(C)=O)c2)nc1-c1ccccc1 | > 100 µM | 17.6 µM | 17.6 µM
> 100 µM |  | CCc1sc(Nc2cccc(C(=O)N[C@@H](Cc3ccccc3)C(C)=O)c2)nc1-c1ccccc1 | > 100 µM | 17.2 µM | 17.2 µM
> 100 µM |  | CC(=O)CNC(=O)c1cccc(Nc2nc(-c3ccc(Cl)cc3)c(C)s2)c1 | > 100 µM | > 100 µM | 
> 100 µM |  | CCc1sc(Nc2cccc(C(=O)NCC(=O)O)c2)nc1-c1ccccc1 | > 100 µM | > 100 µM | 
28.7 µM | 19.8 µM | CC(=O)[C@H](Cc1ccccc1)NC(=O)c1cccc(Nc2nc(-c3ccc(C(F)(F)F)cc3)c(C)s2)c1 | > 100 µM | 8.47 µM | 8.47 µM
48.8 µM |  | Cc1ccc(-c2nc(Nc3cccc(C(=O)N[C@@H](Cc4ccccc4)C(=O)O)c3)sc2C)cc1 | > 100 µM | 63.4 µM | 63.4 µM
> 100 µM |  | CC(=O)CNC(=O)c1cccc(Nc2nc(-c3ccc(F)cc3)c(C)s2)c1 | > 100 µM | > 100 µM | 
4.63 µM |  | Cc1ccc(NC(=O)c2ccc(CN3CCN(C)CC3)cc2)cc1Nc1nccc(-c2cccnc2)n1 [IMATINIB] | > 100 µM | > 100 µM | 
